One compound from patent publication US12257287B2, “Glucagon-derived peptide and use thereof” (Tianjin Institute of Pharmaceutical Research Co., Ltd., priority 2018, dated 2025) can be followed below.

Values after ≈ are worked out from the molar mass of the structure shown. Marks after values point to notes of the source that are not given here. Peptide text beside a SMILES is read from it.

One series addresses T1, human GLP-1 receptor (Homo sapiens, UniProt P43220).
T1 construct: expressed in transfected cells; host or cells: Chinese guinea pig lung cells [sic]
The series is described as follows: GLP-1 receptor mediated cAMP production in vitro. It counts as cell-based. To be noted: cells transfected with human GLP-1 receptor, 20 min at 37° C., read-out: GLP-1R (nM EC50). From the text: (§1) The medium was removed, the cells were lysed, and cAMP values were detected referring to the detection method described for the assay kit.
Background: Changes in cAMP serve as a functional read-out for many G protein-coupled receptors.

Another series addresses T2, GC receptor (Homo sapiens, UniProt P47871).
T2 construct: expressed in transfected cells; host or cells: HEK293 cells
Description: GC receptor mediated cAMP production in vitro (HEK293 cells transfected with GC receptor). The series is classed as cell-based. The settings on record: 20 min at 37° C., read-out: GCGR (nM EC50).
Description: as §1

Series [1] in a line: Effect on body weight of DIO mice after 14 days' administration. The series is classed as in vivo, C57BL/6J mice. The settings on record: DIO mice, subcutaneous injection every day for 14 days; (initial−last)/initial; positive values indicate a decrease. The method, boiled down: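 C57BL/6J mice on H10060 high-fat diet for 34 weeks (DIO; 45.0–52.0 g), 5 per group, dosed subcutaneously once daily for 14 days; controls received saline. Body weight change (%) = (initial − last-day weight)/initial weight; positive values mean loss.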

The nature of series [2]: Glucose tolerance test in glucose-loaded DIO mice. It counts as in vivo. The method, boiled down: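 DIO mice fasted 16 h received compound subcutaneously; 1 h later, glucose 1 g/kg was given intraperitoneally. Blood glucose measured at 0.5, 1 and 1.5 h; AUC compared with model control group to give blood glucose inhibition rate (%).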
Series [3] is described as follows: Short-term administration: food intake and body weight in DIO mice. The settings on record: 30 nmol/kg once every 24 h, twice, − decrease. It counts as in vivo. The method, boiled down:
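DIO mice (mean body weight 52.5 g), 5 per group, dosed at 30 nmol/kg every 24 h for two doses, in 10 mM PBS pH 7.4; controls received solvent. Food intake and body weight at 48 h expressed as change rate versus the day before dosing.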

Another series is described as follows: physchem. The series is classed as physicochemical.
The nature of series [4]: Accelerated chemical stability in injection solvent system (HPLC-UV). It counts as physicochemical. To be noted: 14 days, phosphate buffer pH 7.3 with Tween 80 and phenol, main peak area vs day 0. Summed up: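 Compound dissolved in 10 mM pH 8.5 sodium hydrogen phosphate buffer, adjusted to pH 7.3, with Tween 80 and phenol added. Solutions stored 14 days at 10 °C and 37 °C; HPLC-UV main-peak area by normalisation compared against day 0.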
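For solubility in this document: compound added at 2 mg per mL of phosphate buffer, with the dissolved amount determined in the supernatant.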

T2 sequence (P47871 26-477): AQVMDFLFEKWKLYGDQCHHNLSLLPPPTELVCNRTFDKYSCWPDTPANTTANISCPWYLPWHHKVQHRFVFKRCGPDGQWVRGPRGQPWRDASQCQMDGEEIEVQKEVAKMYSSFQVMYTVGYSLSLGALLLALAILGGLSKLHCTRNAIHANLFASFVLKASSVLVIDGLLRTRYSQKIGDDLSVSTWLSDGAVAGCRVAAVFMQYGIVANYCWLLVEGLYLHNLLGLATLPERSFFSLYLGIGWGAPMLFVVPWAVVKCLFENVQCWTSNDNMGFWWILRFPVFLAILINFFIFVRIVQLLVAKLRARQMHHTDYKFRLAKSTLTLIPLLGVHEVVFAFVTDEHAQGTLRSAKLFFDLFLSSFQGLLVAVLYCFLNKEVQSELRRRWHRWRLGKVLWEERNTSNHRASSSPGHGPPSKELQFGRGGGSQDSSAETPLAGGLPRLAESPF
T1 sequence (P43220 24-463): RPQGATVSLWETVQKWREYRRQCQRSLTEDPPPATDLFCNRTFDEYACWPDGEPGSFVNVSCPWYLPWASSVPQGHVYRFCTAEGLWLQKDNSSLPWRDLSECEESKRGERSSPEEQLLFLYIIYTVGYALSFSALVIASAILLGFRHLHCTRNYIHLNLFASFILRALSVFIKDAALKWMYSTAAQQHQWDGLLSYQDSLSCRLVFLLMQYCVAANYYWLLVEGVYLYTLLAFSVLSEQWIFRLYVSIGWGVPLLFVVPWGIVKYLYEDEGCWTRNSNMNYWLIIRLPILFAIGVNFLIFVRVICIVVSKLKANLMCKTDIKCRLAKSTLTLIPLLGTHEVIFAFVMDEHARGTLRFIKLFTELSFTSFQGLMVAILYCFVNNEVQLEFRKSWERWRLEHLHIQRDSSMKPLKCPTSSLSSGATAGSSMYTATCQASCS

As to `CCCCCCCCCCCCCCCC(=O)N[C@@H](CCC(=O)N[C@@H](CCC(=O)NCCCC[C@H](NC(=O)[C@H](CC(=O)O)NC(=O)[C@H](CO)NC(=O)[C@@H](NC(=O)[C@H](Cc1ccccc1)NC(=O)[C@@H](NC(=O)CNC(=O)[C@H](CCC(N)=O)NC(=O)C(C)(C)NC(=O)[C@@H](N)Cc1c[nH]cn1)[C@@H](C)O)[C@@H](C)O)C(=O)N[C@@H](CO)C(=O)N[C@@H](CCCCN)C(=O)N[C@@H](Cc1ccc(O)cc1)C(=O)N[C@@H](CC(C)C)C(=O)N[C@@H](CCC(=O)O)C(=O)N[C@@H](CCC(=O)O)C(=O)N[C@@H](CCCNC(=N)N)C(=O)N[C@@H](C)C(=O)N[C@@H](C)C(=O)N[C@@H](CCCCN)C(=O)N[C@@H](CCC(=O)O)C(=O)N[C@@H](Cc1ccccc1)C(=O)N[C@H](C(=O)N[C@@H](C)C(=O)N[C@@H](Cc1c[nH]c2ccccc12)C(=O)N[C@@H](CC(C)C)C(=O)N[C@@H](CCC(=O)O)C(=O)N[C@@H](C)C(=O)NCC(=O)NCC(=O)N1CCC[C@H]1C(=O)N[C@@H](CO)C(=O)N[C@@H](CO)C(=O)NCC(N)=O)C(C)C)C(=O)O)C(=O)O` [Compound 4] (HELM PEPTIDE1{H.[Aib].Q.G.T.F.T.S.D.K.S.K.Y.L.E.E.R.A.A.K.E.F.V.A.W.L.E.A.G.G.P.S.S.G.[am]}|PEPTIDE2{[CCCCCCCCCCCCCCCC(=O)[*:2]].[gGlu].[gGlu]}$PEPTIDE1,PEPTIDE2,10:R3-3:R2$$$V2.0; N-terminus assumed), the EC50 (usually the concentration needed to bring the measured effect to its halfway point) at human GLP-1 receptor worked out at 0.051 nM; on GC receptor it was 0.024 nM. Also, the “body weight change rate, Table 3” value in series [1] is 26.0%. Besides, the “AUC of blood glucose, Table 4” value in series [2] (DIO mice fasted 16 h, glucose 1 g/kg i.p. 1 h after s.c. administration, 0.5, 1, 1.5 h) amounted to 9.02 ± 1.74 mmol·h/L. For the same compound, the “AUC reduction rate (%), Table 4” value in series [2] (blood glucose inhibition rate compared with model control group, DIO mice, glucose 1 g/kg i.p.) is given as 57.4** %. Further, in series [3] (at 48 hours vs day before administration), the “Rate of change in food intake (%)” value is recorded as −42%. For the same compound, the “Body weight change” value in series [3] (at 48 hours) is -1.5 g. The solubility (commonly the dissolved amount per volume that the medium holds) in “physchem” (pH 7.5, Solubility, pH 7.5, 10 mM phosphate buffer) is 1820 µg/mL (≈ 437 µM); in the series “physchem” (pH 7.5, Solubility, pH 7.5, 20 mM phosphate buffer) it was 1220 µg/mL (≈ 293 µM); in the series “physchem” (pH 8, Solubility, pH 8.0, 10 mM phosphate buffer), > 2000 µg/mL; in “physchem” (pH 8, Solubility, pH 8.0, 20 mM phosphate buffer), > 2000 µg/mL. Also, in series [4] (10° C.), the “Change in purity % (10° C.)” value is −0.9%. For the same compound, the “Change in purity % (37° C.)” value in series [4] (37° C.) was −3.7%.
